Measurements: PubChem BioAssay (NCI)
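Test compounds were applied to cells in 96-well plates for 48 hours at 5 doses. Abbreviation: GI50, concentration required for 50% inhibition of growth. TGI: total growth inhibition.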

Tests used:
Experiment in all cases: inhibition of tumour cell growth, NCI panel, 48 h
OVCAR-5 ovarian = tested on: OVCAR-5 ovarian
MDA-MB-231 breast = tested on: MDA-MB-231 breast
COLO 205 colon = tested on: COLO 205 colon
CAKI-1 renal = tested on: CAKI-1 renal
UO-31 renal = tested on: UO-31 renal
SW-620 colon = tested on: SW-620 colon
RPMI-8226 leukemia = tested on: RPMI-8226 leukemia
NCI-H460 lung = tested on: NCI-H460 lung
SNB-19 CNS = tested on: SNB-19 CNS
UACC-257 melanoma = tested on: UACC-257 melanoma
OVCAR-4 ovarian = tested on: OVCAR-4 ovarian
KM12 colon = tested on: KM12 colon
MCF7 breast = tested on: MCF7 breast
786-0 renal = tested on: 786-0 renal
LOX IMVI melanoma = tested on: LOX IMVI melanoma
A498 renal = tested on: A498 renal
HT29 colon = tested on: HT29 colon
CCRF-CEM leukemia = tested on: CCRF-CEM leukemia
HCT-15 colon = tested on: HCT-15 colon
IGROV1 ovarian = tested on: IGROV1 ovarian
PC-3 prostate = tested on: PC-3 prostate
NCI-H522 lung = tested on: NCI-H522 lung
HCC-2998 colon = tested on: HCC-2998 colon
HOP-62 NSCLC = tested on: HOP-62 NSCLC
SF-268 CNS = tested on: SF-268 CNS
HOP-92 NSCLC = tested on: HOP-92 NSCLC
SK-MEL-5 melanoma = tested on: SK-MEL-5 melanoma
NCI-H226 lung = tested on: NCI-H226 lung
HS 578T breast = tested on: HS 578T breast
MALME-3M melanoma = tested on: MALME-3M melanoma
SF-295 CNS = tested on: SF-295 CNS
SK-MEL-2 melanoma = tested on: SK-MEL-2 melanoma
SR leukemia = tested on: SR leukemia
OVCAR-3 ovarian = tested on: OVCAR-3 ovarian
SF-539 CNS = tested on: SF-539 CNS
K-562 leukemia = tested on: K-562 leukemia
NCI/ADR-RES ovarian = tested on: NCI/ADR-RES ovarian
OVCAR-8 ovarian = tested on: OVCAR-8 ovarian
ACHN renal = tested on: ACHN renal
SNB-75 CNS = tested on: SNB-75 CNS
HL-60(TB) leukemia = tested on: HL-60(TB) leukemia
SN12C renal = tested on: SN12C renal
BT-549 breast = tested on: BT-549 breast
MDA-MB-435 = tested on: MDA-MB-435
UACC-62 melanoma = tested on: UACC-62 melanoma
T-47D breast = tested on: T-47D breast
A549 NSCLC = tested on: A549 NSCLC
TK-10 renal = tested on: TK-10 renal
NCI-H23 lung = tested on: NCI-H23 lung
MOLT-4 leukemia = tested on: MOLT-4 leukemia
RXF 393 renal = tested on: RXF 393 renal
DU-145 prostate = tested on: DU-145 prostate
U251 CNS = tested on: U251 CNS
SK-MEL-28 melanoma = tested on: SK-MEL-28 melanoma
SK-OV-3 ovarian = tested on: SK-OV-3 ovarian
HCT-116 colon = tested on: HCT-116 colon
MDA-N = tested on: MDA-N
M14 melanoma = tested on: M14 melanoma
EKVX NSCLC = tested on: EKVX NSCLC

With Cc1ccc(C(=O)N(CCCN)C(c2oc3cc(Cl)ccc3c(=O)c2Cc2ccccc2)C(C)C)cc1 (stereo not given) the GI50 (OVCAR-5 ovarian) was < 10 nM, the TGI (OVCAR-5 ovarian) was 1780 nM and the GI50 (MDA-MB-231 breast) was < 10 nM. The GI50 (COLO 205 colon) was < 10 nM, the TGI (COLO 205 colon) was 595 nM and the GI50 (CAKI-1 renal) was 49.2 nM. The TGI (CAKI-1 renal) was 1940 nM, the GI50 (UO-31 renal) was 670 nM and the TGI (UO-31 renal) was 2460 nM. For the same compound, the GI50 (SW-620 colon) was < 10 nM, the TGI (SW-620 colon) was 1450 nM and the GI50 (RPMI-8226 leukemia) was < 10 nM. For the same compound, the TGI (RPMI-8226 leukemia) was 1460 nM, the GI50 (NCI-H460 lung) was < 10 nM and the TGI (NCI-H460 lung) was 1150 nM. For the same compound, the GI50 (SNB-19 CNS) was 1020 nM, the TGI (SNB-19 CNS) was 2410 nM and the GI50 (UACC-257 melanoma) was < 10 nM. It also gave a TGI (UACC-257 melanoma) of 1970 nM, a GI50 (OVCAR-4 ovarian) of 899 nM and a TGI (OVCAR-4 ovarian) of 2470 nM. The GI50 (KM12 colon) was < 10 nM, the TGI (KM12 colon) was 1470 nM and the GI50 (MCF7 breast) was < 10 nM. The TGI (MCF7 breast) was 1390 nM, the GI50 (786-0 renal) was < 10 nM and the TGI (786-0 renal) was 2110 nM. For the same compound, the GI50 (LOX IMVI melanoma) was < 40.2 nM, the TGI (LOX IMVI melanoma) was 1980 nM and the GI50 (A498 renal) was < 10 nM. The GI50 (HT29 colon) was < 10 nM, the TGI (HT29 colon) was 437 nM and the GI50 (CCRF-CEM leukemia) was < 10 nM. For the same compound, the TGI (CCRF-CEM leukemia) was 1700 nM, the GI50 (HCT-15 colon) was < 10 nM and the TGI (HCT-15 colon) was 1570 nM. For the same compound, the TGI (IGROV1 ovarian) was 2720 nM, the GI50 (PC-3 prostate) was < 10 nM and the TGI (PC-3 prostate) was 2030 nM. For the same compound, the GI50 (NCI-H522 lung) was < 10 nM, the TGI (NCI-H522 lung) was < 10 nM and the GI50 (HCC-2998 colon) was < 10 nM. For the same compound, the TGI (HCC-2998 colon) was 1580 nM, the GI50 (HOP-62 NSCLC) was < 10 nM and the TGI (HOP-62 NSCLC) was 1850 nM. The GI50 (SF-268 CNS) was < 10 nM, the TGI (SF-268 CNS) was 1690 nM and the GI50 (HOP-92 NSCLC) was < 10 nM. For the same compound, the TGI (HOP-92 NSCLC) was 1760 nM, the GI50 (SK-MEL-5 melanoma) was < 10 nM and the TGI (SK-MEL-5 melanoma) was 1680 nM. The GI50 (NCI-H226 lung) was 1470 nM, the TGI (NCI-H226 lung) was 3230 nM and the GI50 (HS 578T breast) was < 10 nM. It also gave a TGI (HS 578T breast) of 1460 nM, a GI50 (MALME-3M melanoma) of 1300 nM and a TGI (MALME-3M melanoma) of 3090 nM. For the same compound, the GI50 (SF-295 CNS) was < 10 nM, the TGI (SF-295 CNS) was 1480 nM and the GI50 (SK-MEL-2 melanoma) was < 10 nM. For the same compound, the GI50 (SR leukemia) was < 10 nM, the TGI (SR leukemia) was 1860 nM and the GI50 (OVCAR-3 ovarian) was < 10 nM. For the same compound, the TGI (OVCAR-3 ovarian) was 1140 nM, the GI50 (SF-539 CNS) was < 10 nM and the GI50 (K-562 leukemia) was < 10 nM. It also gave a TGI (K-562 leukemia) of 1410 nM, a GI50 (NCI/ADR-RES ovarian) of 110 nM and a TGI (NCI/ADR-RES ovarian) of 1170 nM. The GI50 (OVCAR-8 ovarian) was < 10 nM, the TGI (OVCAR-8 ovarian) was 1790 nM and the GI50 (ACHN renal) was 1070 nM. For the same compound, the TGI (ACHN renal) was 2390 nM, the GI50 (SNB-75 CNS) was < 10 nM and the TGI (SNB-75 CNS) was 1460 nM. For the same compound, the GI50 (HL-60(TB) leukemia) was < 10 nM, the TGI (HL-60(TB) leukemia) was 126 nM and the GI50 (SN12C renal) was < 10 nM. For the same compound, the TGI (SN12C renal) was 2070 nM, the GI50 (BT-549 breast) was < 10 nM and the TGI (BT-549 breast) was 2030 nM. For the same compound, the GI50 (MDA-MB-435) was < 10 nM, the TGI (MDA-MB-435) was < 10 nM and the GI50 (UACC-62 melanoma) was < 10 nM. For the same compound, the TGI (UACC-62 melanoma) was 2300 nM, the GI50 (T-47D breast) was < 10 nM and the TGI (T-47D breast) was 2020 nM. The GI50 (A549 NSCLC) was < 10 nM, the TGI (A549 NSCLC) was 1540 nM and the GI50 (TK-10 renal) was 1110 nM. For the same compound, the TGI (TK-10 renal) was 2370 nM, the GI50 (NCI-H23 lung) was < 10 nM and the TGI (NCI-H23 lung) was 1610 nM. For the same compound, the GI50 (MOLT-4 leukemia) was < 10 nM, the TGI (MOLT-4 leukemia) was 2940 nM and the GI50 (RXF 393 renal) was < 10 nM. For the same compound, the TGI (RXF 393 renal) was 1480 nM, the GI50 (DU-145 prostate) was < 10 nM and the GI50 (U251 CNS) was < 10 nM. For the same compound, the TGI (U251 CNS) was 1370 nM, the GI50 (SK-MEL-28 melanoma) was 1070 nM and the TGI (SK-MEL-28 melanoma) was 2500 nM. The GI50 (SK-OV-3 ovarian) was < 10 nM and the TGI (SK-OV-3 ovarian) was 1570 nM.
O=C(O)CCCn1nnc2c(=O)[nH][nH]c(=O)c21 was tested, and the TGI (OVCAR-5 ovarian) was > 100000 nM, the TGI (MDA-MB-231 breast) was > 100000 nM and the TGI (COLO 205 colon) was > 100000 nM. The TGI (CAKI-1 renal) was > 100000 nM, the TGI (UO-31 renal) was > 100000 nM and the TGI (RPMI-8226 leukemia) was > 100000 nM. The TGI (NCI-H460 lung) was > 100000 nM, the TGI (SNB-19 CNS) was > 100000 nM and the TGI (UACC-257 melanoma) was > 100000 nM. The TGI (OVCAR-4 ovarian) was > 100000 nM, the TGI (KM12 colon) was > 100000 nM and the TGI (MCF7 breast) was > 100000 nM. The TGI (786-0 renal) was > 100000 nM, the TGI (LOX IMVI melanoma) was > 100000 nM and the TGI (HT29 colon) was > 100000 nM. For the same compound, the TGI (CCRF-CEM leukemia) was > 100000 nM, the TGI (HCT-15 colon) was > 100000 nM and the TGI (PC-3 prostate) was > 100000 nM. The TGI (HCT-116 colon) was > 100000 nM, the TGI (HCC-2998 colon) was > 100000 nM and the TGI (HOP-62 NSCLC) was > 100000 nM. The TGI (HOP-92 NSCLC) was > 100000 nM, the TGI (SK-MEL-5 melanoma) was > 100000 nM and the TGI (MALME-3M melanoma) was > 100000 nM. The TGI (SF-295 CNS) was > 100000 nM, the TGI (MDA-N) was > 100000 nM and the TGI (SK-MEL-2 melanoma) was > 100000 nM. For the same compound, the TGI (SR leukemia) was > 100000 nM, the TGI (OVCAR-3 ovarian) was > 100000 nM and the TGI (K-562 leukemia) was > 100000 nM. For the same compound, the TGI (NCI/ADR-RES ovarian) was > 100000 nM, the TGI (OVCAR-8 ovarian) was > 100000 nM and the TGI (ACHN renal) was > 100000 nM. For the same compound, the TGI (M14 melanoma) was > 100000 nM, the TGI (HL-60(TB) leukemia) was > 100000 nM and the TGI (SN12C renal) was > 100000 nM. For the same compound, the TGI (BT-549 breast) was > 100000 nM, the TGI (MDA-MB-435) was > 100000 nM and the TGI (A549 NSCLC) was > 100000 nM. For the same compound, the TGI (TK-10 renal) was > 100000 nM, the TGI (NCI-H23 lung) was > 100000 nM and the TGI (EKVX NSCLC) was > 100000 nM. The TGI (MOLT-4 leukemia) was > 100000 nM, the TGI (DU-145 prostate) was > 100000 nM and the TGI (U251 CNS) was > 100000 nM. For the same compound, the TGI (SK-MEL-28 melanoma) was > 100000 nM.
